Measurements reported in patent US6423729B1, “Therapeutic or prophylactic agent for glomerulopathy” (Shionogi & Co., Ltd., priority 1997, dated 2002).

Key:
[1] = target: T1, MMP-9 (Homo sapiens, UniProt P14780); assay: Assay for inhibitory activity against MMP-9; format: biochemical
T1 construct: made in house; host or cells: HT1080 human fibrosarcoma cells; endogenous protein secreted after TPA treatment and purified from conditioned medium
Description: (§1) Assay for Inhibitory Activities of MMP-9 and MMP-2
(§2) The enzymatic activity was analyzed on the method described by Knight, C. G., et al. (C. Graham Knight., Frances Willenbrock and Gillian Murphy: A novel coumarin-labelled peptide for sensitive continuous assays of the matrix metalloproteinases. FEBS Lett., 296 (1992) 263-266).
MMP-9 was purified by using a combination of procedures described in previous reports as follows. Yasunori Okada, Yukio Gonoji, Katsumi Naka, Katsuro Tomita, Isao Nakanishi, Kazushi Iwata and Taro Hayakawa: Matrix metalloproteinase 9 (92-kDa gelatinase/type IV collagenase) from HT1080 human fibrosarcoma cells. Purification and activation of the precursor and enzymic properties. J. Biol. Chem., 267 (1992) 21712-21719. Yasunori Okada, Tatsuhisa Morodomi, Jan J, Enghild, Ko Suzuki, Atsushi Yasui, Isao Nakanishi, Guy Salvesen and Hideaki Nagase: Matrix metalloproteinase 2 from human rheumatoid synovial fibroblasts. Purification and activation of the precursor and enzymic properties. Eur. J. Biochem. 194 (1990) 721-730. Robin V Ward, Rosalind M Hembry, John J Reynolds and Gillian Murphy: The purification of tissue inhibitor of metalloproteinase-2 from its 72 kDa progelatinase complex. Biochem. J. 278 (1991) 179-187.
Briefly, human fibrosarcoma ATCC HT1080 cell line was cultured to confluent in Dulbecco's Modified Medium (DMEM) containing 10% fetal-calf serum at 37° C. for 48 hours. Subsequently, the medium of confluent culture was changed to serum-free DMEM medium. To obtain MMP-9, Phorbol-12-myristate-13-acetate (TPA) must be added to this serum-free DMEM medium at a concentration of 50 ng/ml. The TPA treated medium was centrifuged at 3000 rpm for 15 min and the supernatant was concentrated to 450 ml by a Toyo-Roshi UP-20 apparatus with an ultrafiltration membrane. Then, proMMP-9 in this concentrated solution was purified by using columns of Gelatin-Sepharose and Concanavalin A-Sepharose. The pool containing proMMP-9 was dialyzed, concentrated (Toyo-Roshi UP-20) and applied to columns of Sephacryl S-200 and Green A matrix for the separation from TIMPs. The obtained proMMP-9 fraction was activated by TPCK-Trypsin (final conc. […] reaction mix.) for the assay.
(§3) MOCAc-Pro-Leu-Gly-Leu-A2pr(Dnp)-Ala-Arg-NH2 as a substrate was purchased from Petide Institute(Osaka pref., Japan). This substrate was dissolved in DMSO at a concentration of 1 mM.
(§4) Reaction buffer consists of 50 mM Tris-HCl buffer (pH 7.5) containing 10 mM CaCl2, 0.3 M NaCl, 0.005% Brij35 and 0.01% NaN3.
Assay Method of Inhibitory Activity Against MMP-9:
(§5) 1.0 μl of a tested compound in DMSO is added to 48.0 μl of a reaction buffer containing 0.08 μl of an enzyme solution. After standing for 60 minutes at room temperature, the reaction was started by adding 1.0 μl of a substrate solution. After incubation for 60 minutes at room temperature, 100 μl of 3% (v/v) AcOH for reaction stopping and measured a fluorescence with excitation and emission at 320 nm and 405 nm, respectively (Spectrophotofluorometer; Fluoroscan Ascent (Labsystem)).
(§6) The measurement of the inhibitory activities (IC50) was carried out in a following four methods;
(§7) A) Reaction with substrate, enzyme and inhibitor
(§8) B) Reaction with substrate and inhibitor, without enzyme
(§9) C) Reaction with substrate and enzyme, without inhibitor
(§10) D) Reaction with substrate only
(§11) IC50 values were calculated by using a following formula and each fluorescence values of above four methods (A to D).
(§12) % inhibition={1−(A−B)/(C−D)}×100
(§13) IC50 means the concentration required to inhibit 50% of the enzyme activity.

[2] = test system: E30 monoclonal antibody-induced glomerulonephritis in Slc-Wistar rats; assay: Urinary protein excretion in E30 monoclonal antibody-induced glomerulonephritis rats; format: in vivo, rat; conditions: urinary protein excretion on day 2 after E30 injection, compound-treated vs vehicle-treated group, oral, 100 mg once a day, first dose 2 hours before E30
Description: Five to eight weeks old male Slc-Wistar rats were used in the experiment.
In order to induce glomerulonephritis, E30 of 20 to 500 μg, preferably 50 to 200 μg, is intravenously injected to rats of five to eight weeks old. Test compounds of 0.1 to 500 mg, preferably 1 to 200 mg, are suspended with 3 to 10%, preferably 4 to 6%, gum arabic solution and the like, and are orally given 1 to 5 hours, preferably 1.5 to 3 hours, prior to E30 injection. Constant amount of test compounds are then consecutively given 1 to 3 times a day. Evaluation of test compounds are determined by the amount of urinary protein excretion 2 days after E30 injection when proteinuria reaches to the maximum level.
Determination of the amount of urinary protein excretion is performed by the collection of 24-hour urine samples with stainless metabolic cages followed by the measurement of the concentration of urinary protein. Blood samples obtained at the follow-up period are processed for the determination of blood urea nitrogen and plasma creatinine, which indicate renal function. As a marker of damaged renal tubules, urinary amounts of N-acetyl-D-glycosaminidase excretion is measured. Furthermore, to study the inhibitory effects of compounds on mesangial proliferation following E30 injection, the number of PCNA (proliferating cell nuclear antigen) positive cells per single glomerulus is counted. Morphological changes are observed with light and electron microscopy.
5-week-old male Slc-Wistar rats were reared under the conditions of room temperature of 25° C., 40-60% humidity and 12 hour cycles of light and darkness and fed on solid chow (CA-1, Clea Japan) and tap water ad libitum. After one week's preliminary rearing, each rat was housed in a stainless metabolic cage for acclimation for one week, and was used for experiment at 7 weeks of old (body weight: 150-180 g). E30 monoclonal antibody (J.J.N., vol. 36, p106, 1994) was diluted with saline at 100 μg/0.4 ml and was administered from tail vein at the volume of 0.4 ml/body. Compound (2) was suspended with 5% gum arabic solution and was given at the dose of 100 mg 2 hours before E30 injection. Subsequently, compound (2) of 100 mg was orally administered once a day from the next day. The rats were housed in stainless metabolic cages just after the administration of test compound, and then 24-hour urine samples were collected. After measuring the volume, the urine was centrifuged at 3000 rpm for 10 min at room temperature. […] Urinary protein was determined by pyrogallole red method (Micro TP-test Wako, Wako Zyunyaku). The amount of urinary protein excretion on day 2 in compound-treated group was compared with that in vehicle-treated one, and inhibitory ratio of urinary protein excretion was calculated. […]

[3] = target: T2, MMP-2 (Homo sapiens, UniProt P08253); assay: Assay for inhibitory activity against MMP-2; format: biochemical
T2 construct: purchased Yagai (Yamagata pref., Japan)
T2 sequence (P08253 110-660): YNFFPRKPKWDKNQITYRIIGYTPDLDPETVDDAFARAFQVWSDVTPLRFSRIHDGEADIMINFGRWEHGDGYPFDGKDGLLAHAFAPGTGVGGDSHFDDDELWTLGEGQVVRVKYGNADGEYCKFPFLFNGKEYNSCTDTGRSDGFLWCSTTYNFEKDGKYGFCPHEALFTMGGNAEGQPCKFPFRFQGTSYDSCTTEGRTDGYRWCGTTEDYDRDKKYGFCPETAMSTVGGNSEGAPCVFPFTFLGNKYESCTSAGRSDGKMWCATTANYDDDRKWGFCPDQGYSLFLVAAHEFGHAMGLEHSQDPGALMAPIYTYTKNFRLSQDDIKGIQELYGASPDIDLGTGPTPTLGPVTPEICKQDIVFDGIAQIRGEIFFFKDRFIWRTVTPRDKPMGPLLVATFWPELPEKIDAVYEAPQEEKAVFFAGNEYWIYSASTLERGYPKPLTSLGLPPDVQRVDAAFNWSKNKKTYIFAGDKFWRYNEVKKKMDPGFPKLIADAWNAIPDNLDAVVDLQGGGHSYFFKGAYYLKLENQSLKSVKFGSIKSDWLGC
Description: as §1, §2
MMP-2 was purchased from Yagai (Yamagata pref., Japan).
as §3, §4
Assay Method of Inhibitory Activity Against MMP-2:
as §5, with “0.05” for “0.08”
as §6, §7, §8, §9, §10, §11, §12, §13

T1 sequence (P14780 107-707 limits assumed): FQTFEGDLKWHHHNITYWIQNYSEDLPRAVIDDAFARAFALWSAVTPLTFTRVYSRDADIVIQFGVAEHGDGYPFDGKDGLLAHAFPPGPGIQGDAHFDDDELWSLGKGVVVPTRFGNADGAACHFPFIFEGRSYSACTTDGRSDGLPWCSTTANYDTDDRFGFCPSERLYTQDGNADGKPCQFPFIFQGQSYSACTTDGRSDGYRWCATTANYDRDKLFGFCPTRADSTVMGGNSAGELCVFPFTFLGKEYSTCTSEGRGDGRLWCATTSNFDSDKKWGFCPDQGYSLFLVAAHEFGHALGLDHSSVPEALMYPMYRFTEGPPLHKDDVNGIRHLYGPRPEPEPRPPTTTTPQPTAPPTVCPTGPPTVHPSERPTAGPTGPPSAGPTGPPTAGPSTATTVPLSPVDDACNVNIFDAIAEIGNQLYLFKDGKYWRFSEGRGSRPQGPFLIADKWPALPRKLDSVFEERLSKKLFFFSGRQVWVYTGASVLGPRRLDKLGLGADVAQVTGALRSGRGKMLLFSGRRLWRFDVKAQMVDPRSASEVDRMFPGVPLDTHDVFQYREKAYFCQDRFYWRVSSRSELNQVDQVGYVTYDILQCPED

melting point	IC50 [1]	IC50 [3]	SMILES	Inhibitory rate (%) of urinary protein excretion [2]
187 to 189 °C	31.2 nM	9.92 nM	CCc1ccc(-c2nnn(-c3ccc(S(=O)(=O)N[C@H](Cc4ccccc4)C(=O)O)cc3)n2)cc1 [Compound 108]	35%
194 to 195 °C	316 nM	27.8 nM	C[C@@H](NS(=O)(=O)c1ccc(-n2nnc(-c3ccc(F)cc3)n2)cc1)C(=O)O [Compound 114]	2.7%
